Measured values: ChEMBL document CHEMBL1201862, “PubChem BioAssay data set” (2004)
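96-well plates; 48 h exposure; 5 concentrations. Endpoints by linear interpolation between flanking doses. Not reached: highest tested concentration assigned. GI50 is the concentration that inhibits growth by half.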 The source made the active and inactive calls. No stated cut-off is given here; in the data, active = GI50 up to about 1.1 µM and inactive = higher.

Columns and labels:
Test in all cases: inhibition of tumour cell growth, NCI panel, 48 h
OVCAR-4 = system: OVCAR-4
SF-268 = system: SF-268
MDA-MB-231 = system: MDA-MB-231
IGROV-1 = system: IGROV-1
CCRF-CEM = system: CCRF-CEM
SK-MEL-2 = system: SK-MEL-2
RPMI-8226 = system: RPMI-8226
HCT-116 = system: HCT-116
SK-MEL-28 = system: SK-MEL-28
DU-145 = system: DU-145
OVCAR-8 = system: OVCAR-8
786-0 = system: 786-0
SNB-75 = system: SNB-75
COLO 205 = system: COLO 205
CAKI-1 = system: CAKI-1
SF-539 = system: SF-539
HL-60 = system: HL-60
NCI/ADR-RES = system: NCI/ADR-RES
UACC-62 = system: UACC-62
A498 = system: A498
SK-OV-3 = system: SK-OV-3
MCF7 = system: MCF7
T47D = system: T47D
HCC 2998 = system: HCC 2998
M14 = system: M14
TK-10 = system: TK-10
HT-29 = system: HT-29
UO-31 = system: UO-31
SW-620 = system: SW-620
HOP-62 = system: HOP-62
HOP-92 = system: HOP-92
RXF 393 = system: RXF 393
MDA-MB-435 = system: MDA-MB-435
ACHN = system: ACHN
PC-3 = system: PC-3
MOLT-4 = system: MOLT-4
NCI-H226 = system: NCI-H226
NCI-H522 = system: NCI-H522
NCI-H23 = system: NCI-H23
EKVX = system: EKVX
OVCAR-5 = system: OVCAR-5
SN12C = system: SN12C
Hs-578T = system: Hs-578T
SK-MEL-5 = system: SK-MEL-5
A549 = system: A549
KM12 = system: KM12
SF-295 = system: SF-295
OVCAR-3 = system: OVCAR-3
SNB-19 = system: SNB-19
BT-549 = system: BT-549
UACC-257 = system: UACC-257
K562 = system: K562
NCI-H460 = system: NCI-H460
HCT-15 = system: HCT-15
U-251 = system: U-251

CCOC(=O)CSc1nc(-c2ccc(Cl)cc2)c(C#N)c(=O)[nH]1
GI50 (OVCAR-4): > 100 µM (inactive)
GI50 (SF-268): > 100 µM (inactive)
GI50 (MDA-MB-231): 50.6 µM (inactive)
GI50 (IGROV-1): > 100 µM (inactive)
GI50 (CCRF-CEM): 41.1 µM (inactive)
GI50 (SK-MEL-2): > 100 µM (inactive)
GI50 (RPMI-8226): > 100 µM (inactive)
GI50 (HCT-116): 72.9 µM (inactive)
GI50 (SK-MEL-28): > 100 µM (inactive)
GI50 (DU-145): > 100 µM (inactive)
GI50 (OVCAR-8): > 100 µM (inactive)
GI50 (786-0): > 100 µM (inactive)
GI50 (SNB-75): 63.7 µM (inactive)
GI50 (COLO 205): > 100 µM (inactive)
GI50 (CAKI-1): > 100 µM (inactive)
GI50 (SF-539): > 100 µM (inactive)
GI50 (HL-60): 22 µM (inactive)
GI50 (NCI/ADR-RES): > 100 µM (inactive)
GI50 (UACC-62): 92 µM (inactive)
GI50 (A498): > 100 µM (inactive)
GI50 (SK-OV-3): > 100 µM (inactive)
GI50 (MCF7): 99.5 µM (inactive)
GI50 (T47D): 85.1 µM (inactive)
GI50 (HCC 2998): 76 µM (inactive)
GI50 (M14): > 100 µM (inactive)
GI50 (TK-10): > 100 µM (inactive)
GI50 (HT-29): > 100 µM (inactive)
GI50 (UO-31): 77.3 µM (inactive)
GI50 (SW-620): > 100 µM (inactive)
GI50 (HOP-62): > 100 µM (inactive)
GI50 (HOP-92): 42.3 µM (inactive)
GI50 (RXF 393): > 100 µM (inactive)
GI50 (MDA-MB-435): > 100 µM (inactive)
GI50 (ACHN): > 100 µM (inactive)
GI50 (PC-3): > 100 µM (inactive)
GI50 (MOLT-4): > 100 µM (inactive)
GI50 (NCI-H226): 82.4 µM (inactive)
GI50 (NCI-H522): 58.5 µM (inactive)
GI50 (NCI-H23): > 100 µM (inactive)
GI50 (EKVX): > 100 µM (inactive)
GI50 (OVCAR-5): > 100 µM (inactive)
GI50 (SN12C): > 100 µM (inactive)
GI50 (Hs-578T): > 100 µM (inactive)
GI50 (SK-MEL-5): > 100 µM (inactive)
GI50 (A549): > 100 µM (inactive)
GI50 (KM12): > 100 µM (inactive)
GI50 (SF-295): > 100 µM (inactive)
GI50 (OVCAR-3): > 100 µM (inactive)
GI50 (SNB-19): 74.8 µM (inactive)
GI50 (BT-549): > 100 µM (inactive)
GI50 (UACC-257): > 100 µM (inactive)
GI50 (K562): 36 µM (inactive)
GI50 (NCI-H460): > 100 µM (inactive)
GI50 (HCT-15): > 100 µM
GI50 (U-251): > 100 µM (inactive)
